Experimental data as given in US11066446B2, “Cyclic peptide, affinity chromatography support, labeled antibody, antibody drug conjugate, and pharmaceutical preparation” (FUJIFILM Corporation, priority 2016, dated 2021).
Positions of bridges follow the written chain, without caps; N, C: chain ends. Non-standard residues stand in square brackets, D forms with d. Residues, ends and D or L forms follow the SMILES beside them. Triazole bridges read from a SMILES are 1,4-linked. No end group written: not given here. Lys(N3) = [N-]=[N+]=NCCCC[C@H](N)C(=O)O; Orn(N3) = [N-]=[N+]=NCCC[C@H](N)C(=O)O; Dap(N3) = [N-]=[N+]=NC[C@H](N)C(=O)O; Bpg = L-bishomopropargylglycine; Hpra = C#CCC[C@H](N)C(=O)O; Pra = C#CC[C@H](N)C(=O)O

Tests used:
[1] = Stability in human plasma (residual rate by mass spectrometry); conditions: 20 minutes at room temperature, 0-minute sample as 100%
Description: After 20 minutes, 100 μL of methanol (manufactured by Wako Pure Chemical Industries, Ltd.) was added thereto such that the reaction stopped. After being stirred, the solution was subjected to centrifugation, and the supernatant was collected and named 20-minute sample. Meanwhile, 100 μL of methanol was added to 20 μL of the human plasma, 2 μL of the aqueous solution of the cyclic peptide was then added thereto, the solution was stirred and subjected to centrifugation, and the supernatant was collected. The collected supernatant was named 0-minute sample.
By regarding the quantified value obtained from the 0-minute sample as 100%, the quantified value obtained from the 20-minute sample was calculated as a residual rate.

[2] = system: human immunoglobulin G (IgG) antibodies; experiment: Relative binding activity to human IgG antibodies by surface plasmon resonance on immobilized sensor chip; conditions: SPR (Biacore 3000, CM5 chip), 3,000 nM human IgG for 10 minutes at 25° C., relative to the cyclic peptide of Comparative Example 1 regarded as 1
Description: A commercially available CM5 (carboxymethyl dextran introduction-type, manufactured by GE Healthcare) sensor chip was set in Biacore 3000 (Biacore is a registered trademark) as a surface plasmon resonance device manufactured by GE Healthcare, a 4-(2-hydroxyethyl)-1-piperazineethanesulfonic acid (HEPES) buffer solution (20 mM HEPES-HCl, 150 mM NaCl, pH 7.4) for surface plasmon resonance (SPR) was stabilized at a flow rate of 10 μL/min, and 70 μL of an aqueous mixed solution of 0.2 M 1-(3-Dimethylaminopropyl)-3-ethylcarbodiimide (EDC) and […] of N-Hydroxysuccinimide (NHS) were injected thereinto. Thereafter, 100 μL of a sample solution of the cyclic peptide 1, which was diluted with a HEPES buffer solution at 0.2 g/L and treated with a polytetrafluoroethylene (PTFE) filter (manufactured by Advantec MFS, Inc.) having a diameter of 0.20 μm, was supplied to the sensor chip. Then, a blocking treatment was then performed on the sample solution by using an aqueous ethanolamine solution, and the sensor chip was washed with an aqueous sodium hydroxide solution, thereby performing immobilization. Likewise, 70 μL of an aqueous mixed solution of 0.2 M EDC and 0.04 M NHS was added to the same sensor chip without immobilizing the sample in another flow channel of the sensor chip, and then the blocking treatment and the washing treatment were performed. Hereinafter, the obtained immobilized sensor chip will be referred to as “immobilized sensor chip A”.
At 25° C., 3,000 nM of human immunoglobulin G (IgG) antibodies were added for 10 minutes to the immobilized sensor chip A prepared in (2) described above. Then, the antibody binding amount in the flow channel in which the cyclic peptide was immobilized immediately after the addition and in the flow channel in which the cyclic peptide was not immobilized was measured. From the difference in the antibody binding amount between the flow channel in which the cyclic peptide was immobilized and the flow channel in which the cyclic peptide was not immobilized and the amount of the immobilized cyclic peptide, the activity of the cyclic peptide was calculated. Furthermore, by regarding the activity of a cyclic peptide 5 in Comparative Example 1 as 1, the relative binding activity with respect to the human IgG antibodies was calculated.

[3] = Chemical resistance: rate of change in antibody binding amount of immobilized support before and after alkali treatment; format: physicochemical; conditions: peptide-immobilized HiTrap support; human IgG binding amount at 10% leak, before and after 0.05 M aqueous NaOH for 6 hours at 25° C.
Description: 1 mL of HiTrap NHS-activated HP Columns (coupling columns for ligand immobilization, manufactured by GE Healthcare) (HITRAP is a registered trademark) was reacted with 1 mL of 10 mg/mL cyclic peptide solution, which was prepared by dissolving the cyclic peptide 1 in an immobilization buffer (10% DMSO in 200 mM NaHCO3, 500 mM NaCl, pH 8.3), for 1 hour at 25° C. The reaction product was blocked by an aqueous ethanolamine solution and washed, thereby obtaining a cyclic peptide 1-immobilized support. Hereinafter, the obtained immobilized support will be referred to as “immobilized support A”.
The immobilized support A prepared in (4) described above was connected to a chromatography system AKTA avant 25 (manufactured by GE Healthcare) (AKTAAVANT is a registered trademark), and the antibody binding amount was measured. The columns were equilibrated using an equilibration solution (20 mM phosphoric acid buffer, 150 mM NaCl, pH 7.4), and then 20 mL of a 5 mg/mL human IgG antibody standard buffer solution (20 mM phosphoric acid buffer, 150 mM NaCl, pH 7.4) was injected thereinto at a flow rate of 0.21 mL/min. Thereafter, the columns were washed with 5 mL of a postloading wash solution (20 mM phosphoric acid buffer, 150 mM NaCl, pH 7.4) caused to flow at the same flow rate and then washed with 5 mL of a pre-elution wash solution (20 mM phosphoric acid buffer, 1 M NaCl, pH 7.4) at the same flow rate. Then, 5 mL of an elution solution (100 mM citric acid buffer, pH 3.2) was caused to flow at the same flow rate. Subsequently, 5 mL of a cleaning in place (CIP) solution (0.1 M sodium hydroxide) was caused to flow at the same flow rate, and then 5 mL of a reequilibration solution (20 mM phosphoric acid buffer, 150 mM NaCl, pH 7.4) was caused to flow at the same flow rate. At this time, by using an immunoglobulin G (IgG) elution peak obtained by monitoring absorbance at 280 nm, the amount of antibodies binding to the support until 10% of the antibody stock solution leaked out of the support was measured as the antibody binding amount. Then, the immobilized support A was filled with a 0.05 M aqueous NaOH solution for 6 hours at 25° C. and left to stand, the antibody binding amount of the support was then measured in the same manner, and a rate of change in the binding amount was calculated from the antibody binding amount before and after the alkali treatment.

| Relative binding activity ([2]; listed as Example 16) | Relative binding activity ([2]; listed as Example 9) | Compound | Stability in plasma (residual rate) [1] | Relative binding activity [2] | Chemical resistance (rate of change in the binding amount) [3] |
| --- | --- | --- | --- | --- | --- |
|  |  | CC(C)C[C@@H]1NC(=O)[C@H](Cc2c[nH]cn2)NC(=O)[C@H](Cc2ccc(O)cc2)NC(=O)[C@H](C)NC(=O)[C@@H](NC(=O)[C@@H](N)CC(=O)O)CCc2cn(nn2)C[C@@H](C(=O)N[C@H](C(=O)N[C@@H](CCCCN)C(=O)N[C@@H](CCCCN)C(=O)O)[C@@H](C)O)NC(=O)[C@H](Cc2c[nH]c3ccccc23)NC(=O)[C@H](C(C)C)NC(=O)[C@H](CC(C)C)NC(=O)[C@H](CCC(=O)O)NC(=O)CNC1=O [Cyclic peptide 4, Asp-[Hpg]-Ala-Tyr-His-Leu-Gly-Glu-Leu-Val-Trp-[Ala(N3)]-Thr-Lys-Lys] (H-D[Hpra]AYHLGELVW[Dap(N3)]TKK-OH; triazole 2-12; N-terminus and C-terminus assumed) | A (The rate of change in the binding amount was higher than 90%) |  |  |
|  |  | CC(C)C[C@@H]1NC(=O)[C@H](CCC(=O)O)NC(=O)CNC(=O)[C@H](CCCNC(=N)N)NC(=O)[C@H](Cc2c[nH]cn2)NC(=O)[C@H](Cc2ccc(O)cc2)NC(=O)[C@H](C)NC(=O)[C@@H](NC(=O)[C@@H](N)CC(=O)O)CCC(=O)NCCCC[C@@H](C(=O)N[C@H](C(=O)N[C@@H](CCCCN)C(=O)N[C@@H](CCCCN)C(=O)O)[C@@H](C)O)NC(=O)[C@H](Cc2c[nH]c3ccccc23)NC(=O)[C@H](C(C)C)NC1=O [Cyclic peptide 17, Asp-[Glu]-Ala-Tyr-His-Arg-Gly-Glu-Leu-Val-Trp-[Lys]-Thr-Lys-Lys, reference compound] (HELM PEPTIDE1{D.E.A.Y.H.R.G.E.L.V.W.K.T.K.K}$PEPTIDE1,PEPTIDE1,2:R3-12:R3$$$V2.0; N-terminus and C-terminus assumed) | E (The rate of change in the binding amount was equal to or lower than 50%) |  |  |
|  |  | Asp-[Lys(N3)]-Ala-Tyr-His-Arg-Gly-Glu-Leu-Val-Trp-[Bpg]-Thr-Lys-Lys (D[Lys(N3)]AYHRGELVW[Bpg]TKK; triazole 2-12) [Cyclic peptide 1] | A (The rate of change in the binding amount was higher than 90%) | A (The relative binding activity was higher than 800% of the binding activity of the cyclic peptide 5) | B (The rate of change in the binding amount was higher than 80% and equal to or lower than 90%) |
|  |  | Asp-[Lys(N3)]-Ala-Tyr-His-Leu-Gly-Glu-Leu-Val-Trp-[Bpg]-Thr-Lys-Lys (D[Lys(N3)]AYHLGELVW[Bpg]TKK; triazole 2-12) [Cyclic peptide 2] | A (The rate of change in the binding amount was higher than 90%) | A (The relative binding activity was higher than 800% of the binding activity of the cyclic peptide 5) | A (The rate of change in the binding amount was higher than 90%) |
| C or a higher grade |  | Asp-[Nva(N3)]-Ala-Tyr-His-Leu-Gly-Glu-Leu-Val-Trp-[Bpg]-Thr-Lys-Lys (D[Orn(N3)]AYHLGELVW[Bpg]TKK; triazole 2-12) [Cyclic peptide 16, [Nva(N3)] and [Bpg] cross-linked through a triazole bond] |  | B (The relative binding activity was higher than 400% and equal to or lower than 800% of the binding activity of the cyclic peptide 5) | A (The rate of change in the binding amount was higher than 90%) |
|  | C or a higher grade | Asp-[Pra]-Ala-Tyr-His-Leu-Gly-Glu-Leu-Val-Trp-[Lys(N3)]-Thr-Lys-Lys (D[Pra]AYHLGELVW[Lys(N3)]TKK; triazole 2-12) [Cyclic peptide 9, [Pra] and [Lys(N3)] cross-linked through a triazole bond] |  | B (The relative binding activity was higher than 400% and equal to or lower than 800% of the binding activity of the cyclic peptide 5) | A (The rate of change in the binding amount was higher than 90%) |
|  |  | Lys-Lys-Lys-Asp-[Hpg]-Ala-Tyr-His-Leu-Gly-Glu-Leu-Val-Trp-[Ala(N3)]-Thr (KKKD[Hpra]AYHLGELVW[Dap(N3)]T; triazole 5-15) [Cyclic peptide 5, [Hpg] and [Ala(N3)] cross-linked through a triazole bond] |  | A (The relative binding activity was higher than 800% of the binding activity of the cyclic peptide 5) | A (The rate of change in the binding amount was higher than 90%) |
